Test results reported in PMC10385824, “Antiproliferative and Tubulin-Destabilising Effects of 3-(Prop-1-en-2-yl)azetidin-2-Ones and Related Compounds in MCF-7 and MDA-MB-231 Breast Cancer Cells” (Pharmaceuticals, 2023).
Like-named read-outs stand apart in the source and are kept apart here.

Key:
[1] = test system: HL-60(TB); assay: NCI-60 SRB screen, leukemia; format: cell-based, human; conditions: Homo sapiens
[2] = test system: SR; assay: NCI-60 SRB screen, leukemia; format: cell-based, human; conditions: Homo sapiens, 48 h
[3] = test system: EKVX; assay: NCI-60 SRB screen, non-small cell lung cancer; format: cell-based, human; conditions: Homo sapiens, 48 h
[4] = test system: HOP-62; assay: NCI-60 SRB screen, non-small cell lung cancer; format: cell-based, human; conditions: Homo sapiens
[5] = test system: HOP-92; assay: NCI-60 SRB screen, non-small cell lung cancer; format: cell-based, human; conditions: Homo sapiens
[6] = test system: NCI-H226; assay: NCI-60 SRB screen, non-small cell lung cancer; format: cell-based; conditions: Homo sapiens
[7] = test system: NCI-H23; assay: NCI-60 SRB screen, non-small cell lung cancer; format: cell-based, human; conditions: Homo sapiens
[8] = test system: NCI-H460; assay: NCI-60 SRB screen, non-small cell lung cancer; format: cell-based, human; conditions: Homo sapiens
[9] = test system: NCI-H552; assay: NCI-60 SRB screen, non-small cell lung cancer; format: cell-based, human; conditions: Homo sapiens, 48 h
[10] = test system: COLO 205; assay: NCI-60 SRB screen, colon cancer; format: cell-based, human; conditions: Homo sapiens
[11] = test system: HCT-2998; assay: NCI-60 SRB screen, colon cancer; format: cell-based, human; conditions: Homo sapiens, 48 h
[12] = test system: HCT-15; assay: NCI-60 SRB screen, colon cancer; format: cell-based, human; conditions: Homo sapiens
[13] = test system: HT29; assay: NCI-60 SRB screen, colon cancer; format: cell-based, human; conditions: Homo sapiens
[14] = test system: KM12; assay: NCI-60 SRB screen, colon cancer; format: cell-based, human; conditions: Homo sapiens
[15] = test system: SW-620; assay: NCI-60 SRB screen, colon cancer; format: cell-based, human; conditions: Homo sapiens
[16] = test system: SF539; assay: NCI-60 SRB screen, CNS cancer; format: cell-based, human; conditions: Homo sapiens
[17] = test system: PC-3; assay: NCI-60 SRB screen, prostate cancer; format: cell-based, human; conditions: Homo sapiens
[18] = test system: DU-145; assay: NCI-60 SRB screen, prostate cancer; format: cell-based, human; conditions: Homo sapiens
[19] = test system: LOX IMVI; assay: NCI-60 SRB screen, melanoma; format: cell-based, human; conditions: Homo sapiens, 48 h
[20] = test system: M14; assay: NCI-60 SRB screen, melanoma; format: cell-based, human; conditions: Homo sapiens
[21] = test system: MDA-MB-435; assay: NCI-60 SRB screen, melanoma; format: cell-based, human; conditions: Homo sapiens
[22] = test system: SK-MEL-5; assay: NCI-60 SRB screen, melanoma; format: cell-based, human; conditions: Homo sapiens
[23] = test system: OVCAR-5; assay: NCI-60 SRB screen, ovarian cancer; format: cell-based, human; conditions: Homo sapiens
[24] = test system: SK-OV-3; assay: NCI-60 SRB screen, ovarian cancer; format: cell-based, human; conditions: Homo sapiens
[25] = test system: 786-0; assay: NCI-60 SRB screen, renal cancer; format: cell-based, human; conditions: Homo sapiens
[26] = test system: SN12C; assay: NCI-60 SRB screen, renal cancer; format: cell-based, human; conditions: Homo sapiens, 48 h
[27] = test system: MDA-MB-231/ATCC; assay: NCI-60 SRB screen, breast cancer; format: cell-based, human; conditions: Homo sapiens
[28] = test system: HS 578T; assay: NCI-60 SRB screen, breast cancer; format: cell-based; conditions: Homo sapiens, 48 h
[29] = test system: BT-549; assay: NCI-60 SRB screen, breast cancer; format: cell-based, human; conditions: Homo sapiens
[30] = test system: T-47D; assay: NCI-60 SRB screen, breast cancer; format: cell-based, human; conditions: Homo sapiens, T47D, 48 h
[31] = test system: MCF-7 human breast cancer cells; assay: cells
[32] = test system: MDA-MB-231 human breast cancer cells; assay: Alamar Blue cell viability (antiproliferative) assay; format: cell-based; conditions: read-out: IC50
[33] = test system: SNB-19; assay: NCI-60 SRB screen, CNS cancer; format: cell-based, human; conditions: Homo sapiens, SNB-19, 48 h
[34] = HL-60(TB), five dose 0.01–100 µM, 48 h
[35] = five dose 0.01–100 µM, read-out: GI50

C=C(C)C1C(=O)N(c2cc(OC)c(OC)c(OC)c2)C1c1ccc(OC)c(N)c1 (stereo not drawn) [9s, 4-(3-Amino-4-methoxyphenyl)-1-(3,4,5-trimethoxyphenyl)-3-(prop-1-en-2-yl)azetidin-2-one]
GI50 [1, 34]: 28.3 nM
GI50 ([1]; HL-60, NCI screen): < 34 nM
GI50 [2, 35]: 30.4 nM
GI50 [3, 35]: 587 nM
GI50 ([4]; HOP-62, five dose 0.01–100 µM, 48 h, read-out: GI50): 52.1 nM
GI50 ([5]; HOP-92, five dose 0.01–100 µM, 48 h, read-out: GI50): 43.7 nM
GI50 ([6]; NCI-H226, five dose 0.01–100 µM, 48 h, read-out: GI50): 43.5 nM
GI50 ([7]; NCI-H23, five dose 0.01–100 µM, 48 h, read-out: GI50): 25.8 nM
GI50 ([8]; NCI-H460, five dose 0.01–100 µM, 48 h, read-out: GI50): 33.2 nM
GI50 ([9]; NCI-H552, five dose 0.01–100 µM, read-out: GI50): 14.6 nM
GI50 ([10]; COLO 205, five dose 0.01–100 µM, 48 h, read-out: GI50): 19.7 nM
GI50 ([11]; HCT-2998, five dose 0.01–100 µM, read-out: GI50): 29.1 nM
GI50 ([12]; HCT-15, five dose 0.01–100 µM, 48 h, read-out: GI50): 41.6 nM
GI50 ([13]; HT-29, HT29, five dose 0.01–100 µM, 48 h, read-out: GI50): 33.7 nM
IC50 ([13]; HT-29, text of the NCI screening section, read-out: IC50): 34 nM
GI50 ([14]; KM12, five dose 0.01–100 µM, 48 h, read-out: GI50): 23.1 nM
GI50 ([15]; SW-620, five dose 0.01–100 µM, 48 h, read-out: GI50): 39.4 nM
GI50 ([16]; SF-539, SF539, five dose 0.01–100 µM, 48 h, read-out: GI50): 40.2 nM
GI50 ([17]; PC-3, five dose 0.01–100 µM, 48 h, read-out: GI50): 37.9 nM
GI50 ([18]; DU-145, five dose 0.01–100 µM, 48 h, read-out: GI50): 23.6 nM
GI50 [19, 35]: 32.5 nM
GI50 ([20]; M14, five dose 0.01–100 µM, 48 h, read-out: GI50): 24.8 nM
GI50 ([21]; MDA-MB-435, five dose 0.01–100 µM, 48 h, read-out: GI50): 26 nM
GI50 ([22]; SK-MEL-5, five dose 0.01–100 µM, 48 h, read-out: GI50): 23.2 nM
GI50 ([23]; OVCAR-5, five dose 0.01–100 µM, 48 h, read-out: GI50): 81.3 nM
GI50 ([24]; SK-OV-3, five dose 0.01–100 µM, 48 h, read-out: GI50): 31.7 nM
GI50 ([25]; 786-0, five dose 0.01–100 µM, 48 h, read-out: GI50): 37.6 nM
GI50 [26, 35]: 62.9 nM
GI50 ([27]; MDA-MB-231/ATCC, five dose 0.01–100 µM, 48 h, read-out: GI50): 31.5 nM
GI50 ([28]; HS 578T, five dose 0.01–100 µM, read-out: GI50): 40.9 nM
GI50 ([29]; BT-549, five dose 0.01–100 µM, 48 h, read-out: GI50): 37.8 nM
GI50 ([30]; T-47D, five dose 0.01–100 µM, read-out: GI50): > 100000 nM
IC50 ([31]; MCF7, MCF-7): 33 nM

C=C/C=C/C1C(=O)N(c2cc(OC)c(OC)c(OC)c2)C1c1ccc(OC)c(N)c1 (stereo not drawn) [11r, (E)-4-(3-Amino-4-methoxyphenyl)-3-(buta-1,3-dien-1-yl)-1-(3,4,5-trimethoxyphenyl)azetidin-2-one]
IC50 [32]: 33 nM
GI50 [1, 34]: 29.5 nM
GI50 ([1]; HL-60, NCI screen): < 34 nM
GI50 [2]: 33.5 nM
GI50 [3]: 88 nM
GI50 ([4]; HOP-62, 48 h): 52.5 nM
GI50 ([5]; HOP-92, 48 h): 25.3 nM
GI50 ([6]; NCI-H226, 48 h): 56.4 nM
GI50 ([7]; NCI-H23, 48 h): 30 nM
GI50 ([8]; NCI-H460, 48 h): 33.2 nM
GI50 [9]: 16.9 nM
GI50 ([10]; COLO 205, 48 h): 23.1 nM
GI50 [11]: 27 nM
GI50 ([12]; HCT-15, 48 h): 37 nM
IC50 ([13]; HT-29): 34 nM
GI50 ([13]; HT-29, 48 h): 33.6 nM
GI50 ([14]; KM12, 48 h): 33.1 nM
GI50 ([15]; SW-620, 48 h): 42.9 nM
GI50 ([16]; SF-539, 48 h): 39 nM
GI50 [33]: 64.9 nM
GI50 ([17]; PC-3, 48 h): 39.2 nM
GI50 ([18]; DU-145, 48 h): 26 nM
GI50 [19]: 34.4 nM
GI50 ([20]; M14, 48 h): 22.3 nM
GI50 ([21]; MDA-MB-435, 48 h): 22.1 nM
GI50 ([22]; SK-MEL-5, 48 h): 22.2 nM
GI50 ([23]; OVCAR-5, 48 h): 93.7 nM
GI50 ([24]; SK-OV-3, 48 h): 35.6 nM
GI50 ([25]; 786-0, 48 h): 32.7 nM
GI50 [26]: 59.1 nM
GI50 ([27]; MDA-MB-231, 48 h): 31.5 nM
IC50 ([27]; MDA-MB-231, 48 h, read-out: Antiproliferative Activity IC50): 33.7 nM
GI50 ([28]; Hs-578T): 53 nM
GI50 ([29]; BT-549, 48 h): 25.3 nM
GI50 [30]: > 100000 nM
IC50 ([31]; MCF7, read-out: Antiproliferative Activity IC50): 36 ± 5 nM
